Laboratory results taken from the supplement of paper PMC10307832.

Key:
Experiment in all cases: relative viability (nuclei count vs DMSO), 5 days (fraction); higher = more cells survive
[1] = compound: C1CC1C(=O)NC2=NNC3=C2C=CC(=C3)C4=CC(=CC=C4)C(=O)NC5CC5 [XMD13-2] + CS(=O)(=O)CCNCc1ccc(-c2ccc3ncnc(Nc4ccc(OCc5cccc(F)c5)c(Cl)c4)c3c2)o1 [Lapatinib] (partner 2 µM)
In short: (§1)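 Dosing by pin tool came one day after lung cancer cell lines were seeded in 1536-well plates, using either one drug or a fixed anchor-drug dose plus five library-drug doses (not always all listed) in √10 steps. After 5 days, nuclei were counted on 4× images. Relative viability is treated-well nuclei count divided by vehicle-well nuclei count, and values are medians of duplicate plates.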

[2] = compound: C1CC1C(=O)NC2=NNC3=C2C=CC(=C3)C4=CC(=CC=C4)C(=O)NC5CC5 [XMD13-2] + C[C@@H](Oc1cc(-c2cnn(C3CCNCC3)c2)cnc1N)c1c(Cl)ccc(F)c1Cl [Crizotinib] (partner 1 µM)
In short: as §1

[3] = compound: Cc1nc(Nc2ncc(C(=O)Nc3c(C)cccc3Cl)s2)cc(N2CCN(CCO)CC2)n1 [Dasatinib] + CCNC(=O)c1noc(-c2cc(C(C)C)c(O)cc2O)c1-c1ccc(CN2CCOCC2)cc1 [Luminespib] (partner 0.01 µM)
In short: as §1

[4] = compound: Cc1nc(Nc2ncc(C(=O)Nc3c(C)cccc3Cl)s2)cc(N2CCN(CCO)CC2)n1 [Dasatinib] + Cc1cc(Nc2cc(N3CCN(C)CC3)nc(Sc3ccc(NC(=O)C4CC4)cc3)n2)n[nH]1 [Tozasertib] (partner 0.1 µM)
In short: as §1

Cell Line NCI-H2405 has a relative viability ([1]; first compound 0.05 µM) of 1.18, a relative viability ([1]; first compound 0.1581 µM) of 1 and a relative viability ([1]; first compound 0.5 µM) of 0.95. The relative viability ([1]; first compound 1.581 µM) was 0.957, the relative viability ([1]; first compound 5 µM) was 1.09 and the relative viability ([2]; first compound 0.05 µM) was 0.932. For the same cell line, the relative viability ([2]; first compound 0.1581 µM) was 0.84, the relative viability ([2]; first compound 0.5 µM) was 0.971 and the relative viability ([2]; first compound 1.581 µM) was 0.846. The relative viability ([2]; first compound 5 µM) was 0.837, the relative viability ([3]; first compound 0.005 µM) was 0.501 and the relative viability ([3]; first compound 0.01581 µM) was 0.309. The relative viability ([3]; first compound 0.05 µM) was 0.309, the relative viability ([3]; first compound 0.1581 µM) was 0.247 and the relative viability ([3]; first compound 0.5 µM) was 0.142. It also gave a relative viability ([4]; first compound 0.005 µM) of 0.639, a relative viability ([4]; first compound 0.01581 µM) of 0.468 and a relative viability ([4]; first compound 0.05 µM) of 0.448. The relative viability ([4]; first compound 0.1581 µM) was 0.222 and the relative viability ([4]; first compound 0.5 µM) was 0.161.

Cell Line NCI-H3122 has a relative viability ([1]; first compound 0.05 µM) of 1.04, a relative viability ([1]; first compound 0.1581 µM) of 1.03 and a relative viability ([1]; first compound 0.5 µM) of 0.99. For the same cell line, the relative viability ([1]; first compound 1.581 µM) was 0.982, the relative viability ([1]; first compound 5 µM) was 0.848 and the relative viability ([2]; first compound 0.05 µM) was 0.308. It also gave a relative viability ([2]; first compound 0.1581 µM) of 0.289, a relative viability ([2]; first compound 0.5 µM) of 0.267 and a relative viability ([2]; first compound 1.581 µM) of 0.251. For the same cell line, the relative viability ([2]; first compound 5 µM) was 0.249, the relative viability ([3]; first compound 0.005 µM) was 0.0996 and the relative viability ([3]; first compound 0.01581 µM) was 0.0732. It also gave a relative viability ([3]; first compound 0.05 µM) of 0.124, a relative viability ([3]; first compound 0.1581 µM) of 0.0691 and a relative viability ([3]; first compound 0.5 µM) of 0.0615. The relative viability ([4]; first compound 0.005 µM) was 0.38, the relative viability ([4]; first compound 0.01581 µM) was 0.388 and the relative viability ([4]; first compound 0.05 µM) was 0.414. It also gave a relative viability ([4]; first compound 0.1581 µM) of 0.373 and a relative viability ([4]; first compound 0.5 µM) of 0.292.

PC-3 [JPC-3] gave a relative viability ([1]; first compound 0.05 µM) of 0.453, a relative viability ([1]; first compound 0.1581 µM) of 0.467 and a relative viability ([1]; first compound 0.5 µM) of 0.437. The relative viability ([1]; first compound 1.581 µM) was 0.498, the relative viability ([1]; first compound 5 µM) was 0.426 and the relative viability ([2]; first compound 0.05 µM) was 1.02. It also gave a relative viability ([2]; first compound 0.1581 µM) of 0.897, a relative viability ([2]; first compound 0.5 µM) of 0.963 and a relative viability ([2]; first compound 1.581 µM) of 1.01. The relative viability ([2]; first compound 5 µM) was 0.847, the relative viability ([3]; first compound 0.005 µM) was 0.741 and the relative viability ([3]; first compound 0.01581 µM) was 0.646. The relative viability ([3]; first compound 0.05 µM) was 0.76, the relative viability ([3]; first compound 0.1581 µM) was 0.576 and the relative viability ([3]; first compound 0.5 µM) was 0.389. The relative viability ([4]; first compound 0.005 µM) was 0.895, the relative viability ([4]; first compound 0.01581 µM) was 0.859 and the relative viability ([4]; first compound 0.05 µM) was 0.976. It also gave a relative viability ([4]; first compound 0.1581 µM) of 0.799 and a relative viability ([4]; first compound 0.5 µM) of 0.579.

For PC-14, the relative viability ([1]; first compound 0.05 µM) was 0.38, the relative viability ([1]; first compound 0.1581 µM) was 0.324 and the relative viability ([1]; first compound 0.5 µM) was 0.39. The relative viability ([1]; first compound 1.581 µM) was 0.337, the relative viability ([1]; first compound 5 µM) was 0.345 and the relative viability ([2]; first compound 0.05 µM) was 1.03. For the same cell line, the relative viability ([2]; first compound 0.1581 µM) was 0.961, the relative viability ([2]; first compound 0.5 µM) was 0.909 and the relative viability ([2]; first compound 1.581 µM) was 0.818. It also gave a relative viability ([2]; first compound 5 µM) of 0.969, a relative viability ([3]; first compound 0.005 µM) of 0.237 and a relative viability ([3]; first compound 0.01581 µM) of 0.113. For the same cell line, the relative viability ([3]; first compound 0.05 µM) was 0.152, the relative viability ([3]; first compound 0.1581 µM) was 0.158 and the relative viability ([3]; first compound 0.5 µM) was 0.105. For the same cell line, the relative viability ([4]; first compound 0.005 µM) was 0.54, the relative viability ([4]; first compound 0.01581 µM) was 0.583 and the relative viability ([4]; first compound 0.05 µM) was 0.514. For the same cell line, the relative viability ([4]; first compound 0.1581 µM) was 0.667 and the relative viability ([4]; first compound 0.5 µM) was 0.227.

RERF-LC-KJ showed a relative viability ([1]; first compound 0.05 µM) of 0.912, a relative viability ([1]; first compound 0.1581 µM) of 0.841 and a relative viability ([1]; first compound 0.5 µM) of 0.858. It also gave a relative viability ([1]; first compound 1.581 µM) of 0.816, a relative viability ([1]; first compound 5 µM) of 0.78 and a relative viability ([2]; first compound 0.05 µM) of 0.865. The relative viability ([2]; first compound 0.1581 µM) was 0.85, the relative viability ([2]; first compound 0.5 µM) was 0.816 and the relative viability ([2]; first compound 1.581 µM) was 0.771. The relative viability ([2]; first compound 5 µM) was 0.801, the relative viability ([3]; first compound 0.005 µM) was 1.3 and the relative viability ([3]; first compound 0.01581 µM) was 1.05. For the same cell line, the relative viability ([3]; first compound 0.05 µM) was 1.06, the relative viability ([3]; first compound 0.1581 µM) was 0.982 and the relative viability ([3]; first compound 0.5 µM) was 0.993. The relative viability ([4]; first compound 0.005 µM) was 0.52, the relative viability ([4]; first compound 0.01581 µM) was 0.511 and the relative viability ([4]; first compound 0.05 µM) was 0.44. It also gave a relative viability ([4]; first compound 0.1581 µM) of 0.487 and a relative viability ([4]; first compound 0.5 µM) of 0.406.

SK-LU-1 was tested, and the relative viability ([1]; first compound 0.05 µM) was 1.14, the relative viability ([1]; first compound 0.1581 µM) was 0.97 and the relative viability ([1]; first compound 0.5 µM) was 0.971. For the same cell line, the relative viability ([1]; first compound 1.581 µM) was 0.707, the relative viability ([1]; first compound 5 µM) was 0.536 and the relative viability ([2]; first compound 0.05 µM) was 0.912. For the same cell line, the relative viability ([2]; first compound 0.1581 µM) was 0.966, the relative viability ([2]; first compound 0.5 µM) was 1 and the relative viability ([2]; first compound 1.581 µM) was 0.828. The relative viability ([2]; first compound 5 µM) was 0.944, the relative viability ([3]; first compound 0.005 µM) was 0.162 and the relative viability ([3]; first compound 0.01581 µM) was 0.15. The relative viability ([3]; first compound 0.05 µM) was 0.151, the relative viability ([3]; first compound 0.1581 µM) was 0.104 and the relative viability ([3]; first compound 0.5 µM) was 0.118. It also gave a relative viability ([4]; first compound 0.005 µM) of 0.272, a relative viability ([4]; first compound 0.01581 µM) of 0.194 and a relative viability ([4]; first compound 0.05 µM) of 0.156. It also gave a relative viability ([4]; first compound 0.1581 µM) of 0.101 and a relative viability ([4]; first compound 0.5 µM) of 0.0919.

For SK-MES-1, the relative viability ([1]; first compound 0.05 µM) was 0.578, the relative viability ([1]; first compound 0.1581 µM) was 0.461 and the relative viability ([1]; first compound 0.5 µM) was 0.519. For the same cell line, the relative viability ([1]; first compound 1.581 µM) was 0.477, the relative viability ([1]; first compound 5 µM) was 0.514 and the relative viability ([2]; first compound 0.05 µM) was 1.14. It also gave a relative viability ([2]; first compound 0.1581 µM) of 1.06, a relative viability ([2]; first compound 0.5 µM) of 1.04 and a relative viability ([2]; first compound 1.581 µM) of 0.93. It also gave a relative viability ([2]; first compound 5 µM) of 1.02, a relative viability ([3]; first compound 0.005 µM) of 0.844 and a relative viability ([3]; first compound 0.01581 µM) of 0.656. It also gave a relative viability ([3]; first compound 0.05 µM) of 0.353, a relative viability ([3]; first compound 0.1581 µM) of 0.128 and a relative viability ([3]; first compound 0.5 µM) of 0.154. It also gave a relative viability ([4]; first compound 0.005 µM) of 0.972, a relative viability ([4]; first compound 0.01581 µM) of 1.02 and a relative viability ([4]; first compound 0.05 µM) of 0.938. It also gave a relative viability ([4]; first compound 0.1581 µM) of 0.556 and a relative viability ([4]; first compound 0.5 µM) of 0.22.

Work on SW 1573 yielded a relative viability ([1]; first compound 0.05 µM) of 1.13, a relative viability ([1]; first compound 0.1581 µM) of 1.2 and a relative viability ([1]; first compound 0.5 µM) of 1.28. It also gave a relative viability ([1]; first compound 1.581 µM) of 1.06, a relative viability ([1]; first compound 5 µM) of 1.1 and a relative viability ([2]; first compound 0.05 µM) of 1.11. For the same cell line, the relative viability ([2]; first compound 0.1581 µM) was 0.429, the relative viability ([2]; first compound 0.5 µM) was 0.815 and the relative viability ([2]; first compound 1.581 µM) was 0.668. For the same cell line, the relative viability ([2]; first compound 5 µM) was 0.322, the relative viability ([3]; first compound 0.005 µM) was 0.211 and the relative viability ([3]; first compound 0.01581 µM) was 0.216. The relative viability ([3]; first compound 0.05 µM) was 0.272, the relative viability ([3]; first compound 0.1581 µM) was 0.139 and the relative viability ([3]; first compound 0.5 µM) was 0.154. The relative viability ([4]; first compound 0.005 µM) was 0.174, the relative viability ([4]; first compound 0.01581 µM) was 0.189 and the relative viability ([4]; first compound 0.05 µM) was 0.193. It also gave a relative viability ([4]; first compound 0.1581 µM) of 0.128 and a relative viability ([4]; first compound 0.5 µM) of 0.131.
